From patent publication US12163955B2, “Antibodies to methotrexate and uses thereof” (Ark Diagnostics, Inc., priority 2023, dated 2024)
One block for each molecule: values may come before it.

What was measured:
[1] = system: MTX antibodies; assay: Specificity in absence of MTX, cross-reactivity (MTX Assay); type: binding, rabbit; settings: no MTX
From the text: “Cross-reactivity” refers to the reaction of an antibody with an antigen that was not used to induce that antibody. “Cross-reactivity” may be determined in a quantitative immunoassay by establishing a standard curve using known dilutions of the target analyte. The standard curve is then used to calculate the apparent concentration of the interfering substance present in various known amounts in samples assayed under similar condition. The cross-reactivity is the apparent concentration divided by the actual concentration multiplied by 100.
[…] Solvent controls were also prepared and tested.
Cross-reactivity with DAMPA was also tested DAMPA stock solution was spiked into negative serum pool without the presence of MTX.

[2] = MTX Assay calibration curve (homogeneous enzyme immunoassay, Beckman AU680); type: biochemical
Method: The top clones (281H3/28K1, 321H1/32K2 and 64H1/64K1) were selected based on performance for larger scale production and purification (Table 5). These clones were then used for further studies. To make the initial antibody reagent, both clones were diluted to 100 μg/mL with antibody diluent. Then a 1:4 ratio mixture of […] to Clone 64H1/64K1 was made and spiked into antibody diluent. […]
The MTX Assay calibration range is from 0.00 to 1.30 μM. Calibration curves were generated on the Beckman AU680 by assaying each calibrator level in quadruplicate. The Beckman AU680 analyzer performs the nonlinear data analysis automatically using multi-parameter curve-fit math model. Typical calibrator separations are shown for the MTX Assay in Table 6. […] The calculation for feasibility lot percent modulation is shown below: • Max Rate=640.3 mA/min. • Negative Calibrator Rate=358.5 mA/min. • High Calibrator Rate (1.30 μM)=608.7 mA/min. • Total Curve ΔmA=High Cal. Rate−Negative Cal.

[3] = cited from earlier work
[4] = system: MTX antibodies; assay: Specificity in absence of MTX, cross-reactivity (MTX Assay); type: binding, rabbit; settings: Trimethoprim 150 μmol/L, Triamterene 25 μmol/L; for % Cross-reactivity: no MTX
[5] = single dose; within 15 minutes; cited from earlier work

Molecule: CN(Cc1cnc2nc(N)nc(N)c2n1)c1ccc(C(=O)O)cc1 [DAMPA, 4-(((2,4-diaminopteridin-6-yl)methyl)(methyl)amino)benzoic acid]
- Apparent Conc. ([1]; DAMPA 0.04 μmol/L in negative serum pool): 0.023 µmol/L
- % Cross-reactivity ([1]; DAMPA 0.04 μmol/L): 57.50%
- Apparent Conc. ([1]; DAMPA 0.10 μmol/L in negative serum pool): 0.052 µmol/L
- % Cross-reactivity ([1]; DAMPA 0.10 μmol/L): 51.50%
- Apparent Conc. ([1]; DAMPA 0.50 μmol/L in negative serum pool): 0.215 µmol/L
- % Cross-reactivity ([1]; DAMPA 0.50 μmol/L): 42.93%
- Apparent Conc. ([1]; DAMPA 0.80 μmol/L in negative serum pool): 0.187 µmol/L
- % Cross-reactivity ([1]; DAMPA 0.80 μmol/L): 23.42%
- Apparent Conc. ([1]; DAMPA 1.00 μmol/L in negative serum pool): 0.188 µmol/L
- % Cross-reactivity ([1]; DAMPA 1.00 μmol/L): 18.80%

- Calibration curve separation ([2]; 0.00-0.05 μM): 21.5 mA/min
- Calibration curve separation ([2]; 0.00-1.30 μM): 250.2 mA/min
- Calibration curve separation ([2]; 0.05-0.15 μM): 44.9 mA/min
- Calibration curve separation ([2]; 0.15-0.35 μM): 79.7 mA/min
- Calibration curve separation ([2]; 0.35-0.65 μM): 61.0 mA/min
- Calibration curve separation ([2]; 0.65-1.30 μM): 43.1 mA/min
- Calibrator rate ([2]; Calibrator Conc. 0.00 μM): 358.5 mA/min
- Calibrator rate ([2]; Calibrator Conc. 0.05 μM): 380.0 mA/min
- Calibrator rate ([2]; Calibrator Conc. 0.15 μM): 424.8 mA/min
- Calibrator rate ([2]; Calibrator Conc. 0.35 μM): 504.6 mA/min
- Calibrator rate ([2]; Calibrator Conc. 0.65 μM): 565.6 mA/min
- Calibrator rate ([2]; Calibrator Conc. 1.30 μM): 608.7 mA/min
Molecule: CN(Cc1cnc2nc(N)nc(N)c2n1)c1ccc(C(=O)N[C@@H](CCC(=O)O)C(=O)O)cc1 [MTX, (2S)-2-[[4-[(2,4-diaminopteridin-6-yl)methyl-methylamino]benzoyl]amino]pentanedioic acid]
- MTX serum concentration reached ([3]; following a 4-hour infusion, pediatric patients with osteosarcoma): up to 3100 μmol/L
- MTX serum concentration ([3]; high dose therapy for osteosarcoma): exceed 1000 μmol/L
- MTX decay curve level ([3]; osteosarcoma, 72 hours): less than 0.3 μmol/L

Molecule: Nc1nc(N)c2nc(-c3ccccc3)c(N)nc2n1 [Triamterene]
- No MTX Mean [4]: 0.009 µmol/L
- % Cross-reactivity [4]: 0.03%

Molecule: COc1cc(Cc2cnc(N)nc2N)cc(OC)c1OC [Trimethoprim]
- No MTX Mean [4]: 0.000 µmol/L
- % Cross-reactivity [4]: 0.00%

B1: glucarpidase: antidote that converts MTX into DAMPA and glutamate (protein, UniProt P06621 23-415, looked up)
Carboxypeptidase G2: ALAQKRDNVLFQAATDEQPAVIKTLEKLVNIETGTGDAEGIAAAGNFLEAELKNLGFTVTRSKSAGLVVGDNIVGKIKGRGGKNLLLMSHMDTVYLKGILAKAPFRVEGDKAYGPGIADDKGGNAVILHTLKLLKEYGVRDYGTITVLFNTDEEKGSFGSRDLIQEEAKLADYVLSFEPTSAGDEKLSLGTSGIAYVQVNITGKASHAGAAPELGVNALVEASDLVLRTMNIDDKAKNLRFNWTIAKAGNVSNIIPASATLNADVRYARNEDFDAAMKTLEERAQQKKLPEADVKVIVTRGRPAFNAGEGGKKLVDKAVAYYKEAGGTLGVEERTGGGTDAAYAALSGKPVIESLGLPGFGYHSDKAEYVDISAIPRRLYMAARLIMDLGAGK
- reduction of plasma MTX concentrations [5]: ≥ 97%
